Data: ChEMBL document CHEMBL1132518, “Symmetrical anhydride-type serine protease inhibitors: structure-activity relationship studies of human chymase inhibitors” (Bioorg Med Chem Lett, 1999)
pIC50: −log10 of the molar value.

Tests used:
[1] = target: T1, Chymase (Homo sapiens, UniProt P23946); test: Inhibitory activity against human chymase (h-chymase)
T1 sequence (P23946 whole entry): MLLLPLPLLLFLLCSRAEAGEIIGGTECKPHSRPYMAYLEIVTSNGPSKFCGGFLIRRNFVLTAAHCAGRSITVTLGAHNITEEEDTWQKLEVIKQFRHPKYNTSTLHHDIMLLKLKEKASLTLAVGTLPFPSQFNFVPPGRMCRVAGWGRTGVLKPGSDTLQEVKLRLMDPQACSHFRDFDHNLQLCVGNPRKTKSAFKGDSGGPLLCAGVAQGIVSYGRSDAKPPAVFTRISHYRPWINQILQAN

[2] = target: T2, Cathepsin G (Homo sapiens, UniProt P08311); test: Inhibitory activity against human leukocyte cathepsin G (h-CG)
T2 sequence (P08311 whole entry): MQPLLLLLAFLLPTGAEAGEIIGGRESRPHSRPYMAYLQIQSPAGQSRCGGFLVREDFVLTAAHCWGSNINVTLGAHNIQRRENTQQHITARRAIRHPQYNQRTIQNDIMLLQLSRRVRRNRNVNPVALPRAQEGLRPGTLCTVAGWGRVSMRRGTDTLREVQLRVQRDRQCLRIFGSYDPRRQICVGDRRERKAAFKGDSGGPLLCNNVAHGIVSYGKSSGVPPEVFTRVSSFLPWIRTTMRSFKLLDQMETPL

Structure (SMILES)	pIC50 [1]	pIC50 [2]
CCCC(=O)NC(CCc1ccccc1)C(C)(C)C(=O)OC(=O)C(C)(C)C(CCc1ccccc1)NC(=O)CCC (stereo in doubt; 9 (-))	8.25	
CCCC(NC(=O)c1ccccc1)C(C)(C)C(=O)OC(=O)C(C)(C)C(CCC)NC(=O)c1ccccc1 (stereo unspecified)	7.24	
O=C(CCNC(=O)c1ccccc1)OC(=O)CCNC(=O)c1ccccc1	4.40	5.51
CCCC(=O)NC(CCc1ccccc1)C(C)(C)C(=O)OC(=O)C(C)(C)C(CCc1ccccc1)NC(=O)CCC (stereo in doubt; 15)	5.59	
CCCCC(NC(=O)c1ccccc1)C(C)(C)C(=O)OC(=O)C(C)(C)C(CCCC)NC(=O)c1ccccc1 (stereo unspecified)	8.30	
CC(C)(CNC(=O)c1ccccc1)C(=O)OC(=O)C(C)(C)CNC(=O)c1ccccc1	5.52	
CC(C)(C(=O)OC(=O)C(C)(C)C(NC(=O)c1ccc(C#N)cc1)c1ccccc1Cl)C(NC(=O)c1ccc(C#N)cc1)c1ccccc1Cl (stereo unspecified)	4.33	
CC(C)(C(=O)OC(=O)C(C)(C)C(CCc1ccccc1)NC(=O)c1ccc(C#N)cc1)C(CCc1ccccc1)NC(=O)c1ccc(C#N)cc1 (stereo unspecified)	6.57	
O=C(CC(CCc1ccccc1)NC(=O)c1ccccc1)OC(=O)CC(CCc1ccccc1)NC(=O)c1ccccc1 (stereo unspecified)	< 3.00	

Further molecules by rising pIC50 [1], results first:

pIC50 [1]	pIC50 [2]	Structure (SMILES)
4.54	5.80	CCCCCC(NC(=O)CCC)C(C)(C)C(=O)OC(=O)C(C)(C)C(CCCCC)NC(=O)CCC (stereo unspecified)
4.89		CC(C)(C(=O)OC(=O)C(C)(C)C(NC(=O)c1ccc(C#N)cc1)c1ccccc1)C(NC(=O)c1ccc(C#N)cc1)c1ccccc1 (stereo unspecified)
5.06		Cc1ccccc1C(NC(=O)c1ccc(C#N)cc1)C(C)(C)C(=O)OC(=O)C(C)(C)C(NC(=O)c1ccc(C#N)cc1)c1ccccc1C (stereo unspecified)
6.89	7.16	CC(C)(C(=O)OC(=O)C(C)(C)C(NC(=O)c1ccc(C#N)cc1)C1CC=CCC1)C(NC(=O)c1ccc(C#N)cc1)C1CC=CCC1 (stereo unspecified)
7.04		CC(C)(C(=O)OC(=O)C(C)(C)C(CCc1ccccc1)NC(=O)c1ccccc1)C(CCc1ccccc1)NC(=O)c1ccccc1 (single isomer, unassigned; (+))
7.43		CCC(NC(=O)c1ccccc1)C(C)(C)C(=O)OC(=O)C(C)(C)C(CC)NC(=O)c1ccccc1 (stereo unspecified)
7.49		CCCCCCC(NC(=O)c1ccccc1)C(C)(C)C(=O)OC(=O)C(C)(C)C(CCCCCC)NC(=O)c1ccccc1 (stereo unspecified)
7.70		CC(C)(C(=O)OC(=O)C(C)(C)C(CCc1ccccc1)NC(=O)c1ccccc1)C(CCc1ccccc1)NC(=O)c1ccccc1 (stereo in doubt; 9)
7.89		CCCCCC(NC(=O)c1ccccc1)C(C)(C)C(=O)OC(=O)C(C)(C)C(CCCCC)NC(=O)c1ccccc1 (stereo unspecified)
